# Measurements reported in patent US9592223B2, “Small molecule inhibitors of MALT1” (Cornell University, priority 2012, dated 2017).
# How the values were obtained:
# OCI-Ly1 xenografts = assay: OCI-Ly1 xenograft in NOD-SCID mice; assay type: in vivo; details: IP 25 mg/kg/day
# Protocol: Animals were sacrificed 24 hr after the fourteenth injection.
# Eight-week old male SCID NOD.CB17-Prkdc^scid/J mice were subcutaneously injected with low-passage 10^7 human HBL-1, TMD8 or OCI-Ly1 cells. Treatment was administered by intra-peritoneal injection. Tumor volume was monitored by three-weekly digital calipering. All procedures followed US NIH protocols and were approved by the Animal Institute Committee of the Weill Cornell Medical College.
# Eight-week old male SCID NOD.CB17-Prkdc^scid/J mice were purchased from Jackson Laboratories (Bar Harbor, Minn.) and housed in a clean environment. Mice were subcutaneously injected with low-passage 10^7 human TMD8 or OCI-Ly1 cells in 50% matrigel (BD Biosciences, #354234). Treatment was initiated when tumors reached an average size of 120 mm^3 (17 days post-transplantation). Drugs were reconstituted in DMSO and stored at −80° C. until used and were administered by intra-peritoneal injection. Tumor volume was monitored by three-weekly digital calipering (Fisher Scientific, Thermo Scientific, Rockford, Ill.) and calculated using the formula (smallest diameter^2×largest diameter)/2. Data were expressed as mean±SEM, and differences were considered statistically significant at p<0.05 by paired Student's t-test. […]
# HBL-1 cells = assay: MI-2 intracellular concentration in HBL-1 cells by LC-MS; assay type: in vitro ADME, human
# OCI-Ly1 = assay: CFSE dilution assay by flow cytometry, GCB-DLBCL line; assay type: cell-based, human; details: viable cells at 48, 72 and 96 h
# Protocol: (§1) Cell proliferation was examined using the CFSE dilution assay by flow cytometry on viable cells at 48, 72 and 96 h. […] Trypan blue exclusion and apoptosis assessed by Annexin V^+ DAPI^− flow cytometry was measured every 48 hr for a period of 14 days.
# CFSE covalently labels long-lived intracellular molecules with carboxyfluorescein. Following each cell division, fluorescent molecules dilute in daughter cells, allowing comparative study of the kinetics of cell division. Cells were stained with DAPI (Sigma), followed by flow cytometry. DAPI^neg cells were gated for analysis.
# [1] = system: NF-κB signaling gene signatures; assay: Gene expression profiling and GSEA in HBL-1 and TMD8 cell lines; assay type: cell-based, human; details: 8 hr, HBL-1 200 nM, TMD8 500 nM
# Protocol: The impact of MI-2 on NF-κB signaling was further characterized by gene expression profiling. […] Z-VRPR-FMK was previously shown to attenuate the NF-κB signature in ABC-DLBCL cell lines (Hailfinger et al., 2009). […] GSEA was next performed using two independent ABC-DLBCL NF-κB gene expression signatures derived from either OCI-Ly3 and OCI-Ly10 or HBL-1 cell lines.
# RNA integrity was determined using the RNA 6000 Nano LabChip Kit on an Agilent 2100 Bioanalyzer (Agilent Technologies, Santa Clara, Calif.). Samples were processed following Illumina recommendations and cRNA was hybridized to the HumanHT-12 v4 Expression BeadChip (Illumina, San Diego, Calif.). Arrays were scanned on the iScan system. Data pre-processing and quality control were performed using GenomeStudio. The data were log2-transformed combined with quantile normalization (Du et al., 2008). GEO accession number GSE40003.
# In order to determine the biological significance of the results, enrichment tests with respect to sets of related genes were carried out. To this end, we used GSEA (Gene Set Enrichment Analysis) software, and datasets were pre-ranked by fold change value (Subramanian et al., 2005). The p-values for each gene-set were computed on the basis of 1,000 iterations and multiple hypotheses testing correction for FDR calculation (Storey and Tibshirani, 2003).
# OCI-Ly1 cells = assay: Trypan blue exclusion and Annexin V+ DAPI- apoptosis over 14 days, control line; assay type: cell-based, human; details: treated daily at the higher doses used for TMD8, 14 days
# Protocol: as §1
# Apoptosis was assessed by AnnexinV-APC/DAPI (BD Pharmingen) staining followed by flow cytometry.
# c-REL = c-REL flow cytometry of whole cells or isolated nuclei, HBL-1 cells; assay type: cell-based, human; details: 200 nM MI-2 or 50 μM Z-VRPR-FMK, 24 hr
# Protocol: MALT1 mediates c-REL translocation to the nucleus following BCR stimulation (Ferch et al., 2007). […] This selectivity towards c-REL had also been previously shown in MALT1 knockout mice and after MALT1 cleavage inhibition by the MALT1 blocking peptide Z-VRPR-FMK (Ferch et al., 2009; Ferch et al., 2007; Hailfinger et al., 2011).
# […] was studied by flow cytometry. Cells were treated as indicated and total cells or isolated nuclei were prepared and stained for c-REL. Total cells were fixed and permeabilized using the Intrastain kit from Dako (Glostrup, Denmark). For nuclei extraction, cells were resuspended in cold nuclei extraction buffer (320 mM sucrose, 5 mM MgCl2, 10 mM HEPES, 1% Triton X-100 at pH 7.4), incubated for 10 min on ice and washed twice with nuclei wash buffer (320 mM sucrose, 5 mM MgCl2, 10 mM HEPES at pH 7.4, no Triton X-100). Nuclei yield and integrity were confirmed by microscopic examination with trypan blue staining. For labeling, nuclei wash buffer was supplemented with 1% BSA, 0.1% sodium azide and 1:100 c-REL antibody (Cell Signaling). Cells were washed then incubated with Alexa Fluor-488 conjugated secondary antibodies from Invitrogen. Cells were washed again and stained with DAPI followed by flow cytometry.
structure (smiles),measurement,setting,value
COCCOc1nc(-c2ccc(Cl)c(Cl)c2)n(-c2ccc(NC(=O)CCl)cc2)n1 [MI-2],tumor growth vs. vehicle,"OCI-Ly1 xenografts; fourteen injections, p=0.47",no effect on the growth
same,proliferation (Ki-67 staining),OCI-Ly1 xenografts; p=1.0,no difference
same,intracellular concentration,"HBL-1 cells; 0.2 μM treated HBL-1 cells, 2 hr",5 µM
same,free drug within the cells,"HBL-1 cells; 0.2 μM, by 12 hr",virtually no detectable free MI-2
same,cell proliferation (CFSE dilution),OCI-Ly1,did not affect
same,GSEA of ABC-DLBCL NF-κB gene expression signatures,[1],significant enrichment of these NF-κB gene sets among genes downregulated
same,GSEA of Z-VRPR-FMK signature,[1],significantly enriched among genes downregulated after MI-2-treatment
same,viability and apoptosis,OCI-Ly1 cells,no effect
same,nuclear c-REL,c-REL; isolated nuclei,reduced nuclear c-REL
same,whole cell c-REL,c-REL; whole cells,without affecting whole cell levels
